Common to all, as to assay: NCI-60 cell line screen, 48 h
The test system of test [1] is SN12C renal.
The subject of test [2] is NCI-H226 lung.
The test system of test [3] is BT-549 breast.
Test [4] concerns SK-MEL-28 melanoma.
In test [5] the test system is MDA-MB-435.
Test [6] has as its system SF-539 CNS.
Test [7] concerns IGROV1 ovarian.
The test system of test [8] is DU-145 prostate.
The test system of test [9] is MALME-3M melanoma.
Test [10] concerns MDA-MB-231 breast.
Test [11] has as its system OVCAR-8 ovarian.
Test [12] relates to CCRF-CEM leukemia.
Test [13] has as its system KM12 colon.
For test [14], the system named is 786-0 renal.
The subject of test [15] is OVCAR-5 ovarian.
Test [16] deals with A549 NSCLC.
Test [17] deals with NCI-H460 lung.
For test [18], the system named is A498 renal.
The test system of test [19] is MCF7 breast.
Test [20] deals with HL-60(TB) leukemia.

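Grown in 96-well plates, cells were treated for 48 hours with each compound at five concentrations. Insufficient inhibition: endpoint recorded as highest concentration tested. TGI: concentration producing complete growth inhibition.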

On to `CN(C)/C=N/S(=O)(=O)c1nn2c(C=O)c(-c3ccc([N+](=O)[O-])cc3)nc2s1`, for which the TGI in [1] was 22.6 µM; in test [2], more than 95.1 µM; in test [3] it was 25.5 µM; in [4] it was 18.3 µM; in test [5] it was 50.4 µM; in [6], 71.4 µM. For the same compound, the TGI in test [7] is 17.6 µM; in test [8], more than 41.6 µM; in test [9], 8.72 µM; in [10], more than 81.5 µM; in [11], 47.4 µM; in [12], 19.2 µM. Also, the TGI in test [13] is 42.3 µM; in test [14], 9.03 µM; in test [15] it was more than 79.6 µM; in test [16], more than 100 µM; in test [17], more than 85.9 µM; in test [18], more than 100 µM. The TGI in test [19] is more than 42 µM; in test [20], 3.85 µM.

For `O=C(O)c1cc(N(Cc2ccccc2O)Cc2cc(O)ccc2O)ccc1O`, the TGI in test [1], in [2], in [3], in [4], in test [5] and in test [6] was more than 100 µM throughout. In addition, the TGI in [7], in [8], in test [9], in [10], in [11] and in [12] was more than 100 µM in each case. Further, the TGI in test [13], in test [14], in [15], in test [16], in [17] and in test [18] was more than 100 µM each time. For the same compound, the TGI in test [19] and in [20] was more than 100 µM each time.

Consider `CC(OCc1ccccc1)C(NC(=O)C1CSSCC(NC(=O)C(Cc2ccccc2)NC(=O)OCc2ccccc2)C(=O)NC(Cc2ccccc2)C(=O)NC(Cc2cn(C=O)c3ccccc23)C(=O)NC(CCCCNC(=O)OCc2ccccc2)C(=O)NC(C(C)OCc2ccccc2)C(=O)N1)C(N)=O` (stereo not given), for which the TGI in test [1] is more than 100 µM; in test [2], more than 100 µM; in test [3], more than 66.5 µM; in [4], more than 100 µM; in test [5], more than 100 µM; in [6], more than 100 µM. The TGI in test [7] is more than 100 µM; in test [8], more than 100 µM; in test [9], more than 90.4 µM; in [10], 37.3 µM; in test [11], more than 100 µM; in [12] it was more than 100 µM. Moreover, the TGI in [13] is more than 55.5 µM; in test [14], more than 86.9 µM; in [15], more than 100 µM; in test [16] it was more than 100 µM; in test [17] it was more than 61.8 µM; in [18] it was 63.5 µM. In addition, the TGI in test [19] is 41.1 µM; in [20] it was 2.89 µM.

These data come from PubChem BioAssay (NCI).
